Values joined by “and” are separate entries in the source; they are usually repeats but may differ in a detail not shown here. Identical values can stand only once. Like-named read-outs stand apart in the source and are kept apart here.
Legend:
[1] = tested on: influenza virus A/PR/8/34 (H1N1); format: cell-based; settings: liposomes containing the peptide; egg PC concentration of 1 mM (peptide concentration: 0.15 mM); vs liposome without peptide
[2] = format: binding; settings: GM3 monolayer, QCM
[3] = format: binding; settings: 6′GM3 monolayer, QCM
[4] = format: binding; settings: LacCer monolayer, QCM
[5] = format: binding; settings: GalCer monolayer, QCM
[6] = format: binding; settings: QCM; data not shown

| Substance | percent inhibition of infection [1] [%] | Kd [2] [µM] | Δmmax (maximum binding amount) [2] | Kd [3] [µM] | Δmmax (maximum binding amount) [3] [ng cm^−2] | Kd [4] [µM] | Δmmax (maximum binding amount) [4] [ng cm^−2] | Kd [5] [µM] | Δmmax (maximum binding amount) [5] [ng cm^−2] | binding to glycosphingolipids [6] |
| --- | --- | --- | --- | --- | --- | --- | --- | --- | --- | --- |
| ARLSPTMVHPRGAQP [A1 peptide, reference compound] | 76 | – | – | – | – | – | – | – | – | – |
| GWWYKGRARPVSAVA [c01-peptide, H-GWWYKGRARPVSAVA-NH2] | 83 | 1.8 | 46 ng cm^−2 and 46 ± 2.4 ng cm^−2 | 4 ± 1.1 | 93 ± 4.6 | 4.8 ± 1.6 | 74 ± 5.2 | 13 ± 3.3 | 64 ± 4.5 | – |
| H-AETVESCLAKPHTEN-NH2 [control peptide] | – | – | – | – | – | – | – | – | – | bound to none of the glycosphingolipids |
| RAVWRHSVATPSHSV [c03-peptide, H-RAVWRHSVATPSHSV-NH2] | 94 | 0.34 | 11 ng cm^−2 and 11 ± 0.1 ng cm^−2 | 7 ± 2.2 | 56 ± 3.1 | 5.9 ± 1.2 | 37 ± 1.8 | – | <3 | – |

From patent publication US20090098195A1 (priority 2004, published 2009)
